Data as given in patent publication US20080214552A1, “Substituted Pyridazinecarboxamides and Derivatives Thereof” (priority 2004, published 2008).

What was measured:
[1] = log P determination by HPLC on reverse-phase column (EEC directive 79/831 Annex V.A8); type: physicochemical; details: reverse-phase C18 HPLC column, acidic range (pH 2.3), 0.1% aqueous phosphoric acid/acetonitrile, 43° C.
Description: The log P values given in the table were determined in accordance with EEC directive 79/831 Annex V.A8 by HPLC (High Performance Liquid Chromatography) on a reverse-phase column (C 18). Temperature: 43° C. (a) Mobile phases for the determination in the acidic range (pH 2.3): 0.1% aqueous phosphoric acid, acetonitrile; linear gradient from 10% acetonitrile to 90% acetonitrile—the corresponding measurement results in table 1 are marked a). Calibration was carried out using unbranched alkan-2-ones (having 3 to 16 carbon atoms) with known log P values (determination of the log P values by the retention times using linear inter-polation between two successive alkanones).

[2] = tested on: larvae of the mustard beetle (Phaedon cochleariae); assay: Phaedon test (spray treatment); type: in vivo; details: 500 g/ha, spray treatment of Chinese cabbage disks
Description: (§1) To produce a suitable preparation of active compound, 1 part by weight of active compound is mixed with the stated amounts of solvents and emulsifier, and the concentrate is diluted with emulsifier-containing water to the desired concentration. Disks of Chinese cabbage (Brassica pekinensis) are sprayed with a preparation of active compound of the desired concentration and, after drying, populated with larvae of the mustard beetle (Phaedon cochleariae). After the desired period of time, the effect in % is determined. 100% means that all beetle larvae have been killed; 0% means that none of the beetle larvae have been killed.

[3] = tested on: caterpillars of the armyworm (Spodoptera frugiperda); assay: Spodoptera frugiperda test (spray treatment); type: in vivo; details: 500 g/ha, spray treatment of corn leaf disks
Description: as §1, with “corn leaves (Zea mays)” for “Chinese cabbage (Brassica pekinensis)”, “caterpillars” for “larvae”, “armyworm (Spodoptera frugiperda).” for “mustard beetle (Phaedon cochleariae).”, “caterpillars” for “beetle larvae”

Row | chromatographic logP [1] | SMILES | Kill rate in % after 7 d [2] | Kill rate in % after 7 d [3]
1 | 1.68 | COC(=O)c1cnncc1C(F)(F)F [methyl 5-trifluoromethylpyridazine-4-carboxylate] | – | –
2 | 0.6 | N#CCNC(=O)c1cnncc1C(F)(F)F [Example 1, N-cyanomethyl-5-trifluoromethylpyridazine-4-carboxamide] | – | –
3 | – | O=C(NC(c1ccccc1)c1ccccn1)c1cnncc1C(F)(F)F (stereo not shown) [Ia-59] | 100% | 100%
